# Measurements published in ChEMBL document CHEMBL1833788, “Selective water-soluble gelatinase inhibitor prodrugs” (J Med Chem, 2011).
# Assays:
# Mus musculus [1] = test: Prodrug conversion in C57B1/6 mouse assessed as N-(4-(4-(thiiran-2-ylmethylsulfonyl)phenoxy)phenyl)acetamide level in plasma at […], iv administered as single bolus dose after 7 to 8 mins by reversed-phase LC/MS analysis; details: in vivo
# Mus musculus [2] = test: Prodrug conversion in C57B1/6 mouse assessed as N-(4-(4-((Thiiran-2-ylmethyl)sulfonyl)phenoxy)phenyl) hydroxylamine level in urine at […], iv administered as single dose by reversed-phase LC/MS analysis; assay type: ADME, organism-based; details: in vivo
# Mus musculus [3] = test: Prodrug conversion in C57B1/6 mouse plasma assessed as parent compound level at […], iv administered as single bolus dose after 4 to 5 mins by reversed-phase LC/MS analysis; assay type: ADME, organism-based; details: in vivo, read-out: Drug metabolism
# Mus musculus [4] = test: Terminal half life in C57B1/6 mouse plasma assessed as parent compound level at […], iv administered as single bolus dose; assay type: ADME, organism-based; details: in vivo
# Mus musculus [5] = test: Prodrug conversion in C57B1/6 mouse assessed as 4-[4-((Thiiran-2-yl)methylsulphonyl)phenoxy]benzamine level in plasma at […], iv administered as single bolus dose after 240 mins by reversed-phase HPLC/UV analysis; assay type: ADME, organism-based; details: in vivo, 4 h, read-out: Drug metabolism
# Mus musculus [6] = test: Prodrug conversion in C57B1/6 mouse assessed as N-(4-(4-((Thiiran-2-ylmethyl)sulfonyl)phenoxy)phenyl) hydroxylamine level in plasma at […], iv administered as single dose by reversed-phase LC/MS analysis; assay type: ADME, organism-based; details: in vivo
# Mus musculus [7] = test: Prodrug conversion in C57B1/6 mouse plasma assessed as parent compound level at […], iv administered as single bolus dose after 240 mins by reversed-phase LC/MS analysis; assay type: ADME, organism-based; details: in vivo, 4 h, read-out: Drug metabolism
# Mus musculus [8] = test: Prodrug conversion in C57B1/6 mouse assessed as 4-[4-((Thiiran-2-yl)methylsulphonyl)phenoxy]benzamine level in plasma at […], iv administered as single bolus dose after 120 to 123 mins by reversed-phase HPLC/UV analysis; assay type: ADME, organism-based; details: in vivo
# Mus musculus [9] = test: Prodrug conversion in C57B1/6 mouse assessed as N-(4-(4-(thiiran-2-ylmethylsulfonyl)phenoxy)phenyl)acetamide level in plasma at […], iv administered as single bolus dose after 4 to 5 mins by reversed-phase HPLC/UV analysis; assay type: ADME, organism-based; details: in vivo, read-out: Drug metabolism
smiles,measurement,setting,value
Cl.N=C(N)NCCC[C@H](N)C(=O)Nc1ccc(Oc2ccc(S(=O)(=O)CC3CS3)cc2)cc1 (some centres undefined),Drug metabolism,Mus musculus [1],0.176 µM
same,Drug metabolism,Mus musculus [2],Not Active
same,concentration,Mus musculus [3],7320 nM
same,beta t1/2,Mus musculus [4],4.33 h
same,concentration,Mus musculus [5],14.5 nM
same,Drug metabolism,Mus musculus [6],Not Active
same,concentration,Mus musculus [7],8.3 nM
same,Drug metabolism,Mus musculus [8],0.0248 µM
same,concentration,Mus musculus [9],231 nM
